The text below walks through data of US7514448B2, “Azaindoles useful as inhibitors of rock and other protein kinases” (Vertex Pharmaceuticals Incorporated, priority 2004, dated 2009).

SMILES strings stand for the structures.

What all share (assay type): biochemical
One assay concerns the target ROCK (Homo sapiens, UniProt Q13464). Description: ROCK radioactive assay ("33P"). Particulars: radioactive assay; average Ki if more than one determined; read-out: ROCK 33P Ki. From the text: (§1) If more than one value of Ki has been determined, the average Ki is indicated. If no value is indicated, then the Ki was not determined.
The target of the next assay is ROCK I (AA 6-553) (Homo sapiens, UniProt Q13464). Description: ROCK inhibition assay, coupled enzyme system ("Enzyme"). Particulars: enzyme-linked assay; average Ki if more than one determined. On the procedure: Reactions were carried out in a solution containing 100 mM HEPES (pH 7.5), 10 mM MgCl2, 25 mM NaCl, 2 mM DTT and 1.5% DMSO.
as §1

In a further assay the target is PKA (Homo sapiens, UniProt P17612). Kind of assay: PKA inhibition assay, coupled enzyme. Particulars: average Ki if more than one determined. The method, boiled down: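 Coupled PK/LDH assay following NADH depletion: 18 nM PKA, 50 μM ATP, 80 μM Kemptide in 100 mM HEPES pH 7.5, 10 mM MgCl2, 25 mM NaCl, 1 mM DTT, 3% DMSO, at 30 °C. Compound preincubated 10 min before ATP start; initial rates over 15 min, IC50 and Ki by non-linear regression.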

As a reminder, the Ki is the equilibrium dissociation constant of an inhibitor or competing ligand from its target.

Sequence of ROCK (Q13464 whole entry, the tested form may be a part): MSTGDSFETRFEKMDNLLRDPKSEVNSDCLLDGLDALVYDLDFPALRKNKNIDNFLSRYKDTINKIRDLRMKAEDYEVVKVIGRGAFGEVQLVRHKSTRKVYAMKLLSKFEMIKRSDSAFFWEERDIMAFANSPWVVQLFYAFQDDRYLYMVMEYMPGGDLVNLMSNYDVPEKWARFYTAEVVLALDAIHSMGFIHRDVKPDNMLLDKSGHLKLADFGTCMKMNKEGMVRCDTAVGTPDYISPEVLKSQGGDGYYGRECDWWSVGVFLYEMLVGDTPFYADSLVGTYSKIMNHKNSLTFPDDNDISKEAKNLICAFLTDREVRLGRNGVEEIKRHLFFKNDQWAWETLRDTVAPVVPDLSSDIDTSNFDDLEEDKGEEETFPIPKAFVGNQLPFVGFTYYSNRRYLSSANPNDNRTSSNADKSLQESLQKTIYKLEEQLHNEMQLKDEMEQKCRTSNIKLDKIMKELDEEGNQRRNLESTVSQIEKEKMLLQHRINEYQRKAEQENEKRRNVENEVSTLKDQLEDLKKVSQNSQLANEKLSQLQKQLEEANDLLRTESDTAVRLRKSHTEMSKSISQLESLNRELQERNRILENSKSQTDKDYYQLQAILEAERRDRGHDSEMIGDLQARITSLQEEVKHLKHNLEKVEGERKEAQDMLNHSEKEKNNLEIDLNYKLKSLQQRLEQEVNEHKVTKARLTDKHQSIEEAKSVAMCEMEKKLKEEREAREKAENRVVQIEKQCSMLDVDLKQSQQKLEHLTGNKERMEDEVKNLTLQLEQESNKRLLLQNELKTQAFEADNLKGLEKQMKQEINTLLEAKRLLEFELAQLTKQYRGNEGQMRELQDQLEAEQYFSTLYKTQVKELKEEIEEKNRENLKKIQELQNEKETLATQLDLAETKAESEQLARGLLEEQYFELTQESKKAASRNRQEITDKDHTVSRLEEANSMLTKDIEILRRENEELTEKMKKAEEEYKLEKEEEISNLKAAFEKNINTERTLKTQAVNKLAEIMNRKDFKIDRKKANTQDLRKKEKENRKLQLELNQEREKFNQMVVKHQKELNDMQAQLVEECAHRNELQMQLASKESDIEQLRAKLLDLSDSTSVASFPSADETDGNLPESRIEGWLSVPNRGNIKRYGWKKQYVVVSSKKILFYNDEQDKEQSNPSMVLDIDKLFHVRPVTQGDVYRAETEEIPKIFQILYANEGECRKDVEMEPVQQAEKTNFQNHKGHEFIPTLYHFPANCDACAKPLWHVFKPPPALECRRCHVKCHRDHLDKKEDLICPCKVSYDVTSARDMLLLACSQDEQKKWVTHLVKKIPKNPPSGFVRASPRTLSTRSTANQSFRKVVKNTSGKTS
Sequence of ROCK I (AA 6-553) (Q13464 6-553, species assumed): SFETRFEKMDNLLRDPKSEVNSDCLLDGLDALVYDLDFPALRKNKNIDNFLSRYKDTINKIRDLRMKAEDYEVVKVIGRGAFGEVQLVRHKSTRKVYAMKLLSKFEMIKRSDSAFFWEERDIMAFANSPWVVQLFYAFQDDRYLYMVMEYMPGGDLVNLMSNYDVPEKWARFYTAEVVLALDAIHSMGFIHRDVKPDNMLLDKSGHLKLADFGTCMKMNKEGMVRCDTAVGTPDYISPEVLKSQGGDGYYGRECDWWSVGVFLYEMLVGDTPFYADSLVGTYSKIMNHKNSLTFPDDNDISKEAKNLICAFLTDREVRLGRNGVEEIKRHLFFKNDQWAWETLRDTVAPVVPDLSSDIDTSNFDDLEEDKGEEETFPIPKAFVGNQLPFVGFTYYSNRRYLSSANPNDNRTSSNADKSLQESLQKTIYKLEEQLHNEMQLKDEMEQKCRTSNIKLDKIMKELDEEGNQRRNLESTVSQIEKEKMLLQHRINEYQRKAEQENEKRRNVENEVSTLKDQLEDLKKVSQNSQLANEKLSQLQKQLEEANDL

As for `CN1CCN(S(=O)(=O)c2cccc(CC(=O)Nc3nc(-c4c[nH]c5ncccc45)cs3)c2)CC1` [II-51], the Ki at ROCK, on ROCK I (AA 6-553) and at PKA was below 500 nM each time.

For the molecule `O=C(Cc1ccc(OCCN2CCNCC2)cc1Cl)Nc1nc(-c2c[nH]c3ncccc23)cs1` [II-108], the inhibitory constant (Ki) was below 500 nM at ROCK, below 500 nM on ROCK I (AA 6-553) and 500 to 5000 nM on PKA.

Consider `CN1CCN(CCOc2ccc(CC(=O)Nc3nc(-c4c[nH]c5ncccc45)cs3)c(Cl)c2)CC1` [II-109], for which the Ki was below 500 nM at ROCK, below 500 nM at ROCK I (AA 6-553) and 500 to 5000 nM on PKA.

Consider `O=C(Cc1ccc(OCCCN2CCNCC2)cc1Cl)Nc1nc(-c2c[nH]c3ncccc23)cs1` [II-110], for which the results for the Ki at ROCK, on ROCK I (AA 6-553) and on PKA were below 500 nM, below 500 nM and 500 to 5000 nM, respectively.

Regarding `CN1CCN(CCCOc2ccc(CC(=O)Nc3nc(-c4c[nH]c5ncccc45)cs3)c(Cl)c2)CC1` [II-111], the figures for the Ki on ROCK, on ROCK I (AA 6-553) and on PKA were below 500 nM, below 500 nM and 500 to 5000 nM, respectively.

Take `O=C(Cc1cccc(S(=O)(=O)N2CCCCC2)c1)Nc1nc(-c2c[nH]c3ncccc23)cs1` [II-112]: the Ki at ROCK I (AA 6-553) is below 500 nM; at PKA, 500 to 5000 nM.

Regarding `CN(c1cccc(CC(=O)Nc2nc(-c3c[nH]c4ncccc34)cs2)c1)S(C)(=O)=O` [II-113], the Ki at ROCK I (AA 6-553) and on PKA was below 500 nM throughout.

For the molecule `COc1cccc(CNC(=O)c2csc(-c3c[nH]c4ncccc34)c2)c1` [II-114], the inhibitory constant (Ki) at ROCK, at ROCK I (AA 6-553) and at PKA was below 500 nM throughout.

Turning to `CS(=O)(=O)Nc1cccc(CNC(=O)c2ccc(-c3c[nH]c4ncccc34)s2)c1` [II-115], the Ki at ROCK, at ROCK I (AA 6-553) and on PKA was below 500 nM each time.

On to `N#CCC(=O)Nc1nc(-c2c[nH]c3ncccc23)cs1` [II-116], for which the Ki on ROCK, on ROCK I (AA 6-553) and at PKA was below 500 nM throughout.

On to `CS(=O)(=O)Nc1cccc(CNC(=O)c2csc(-c3c[nH]c4ncccc34)c2)c1` [II-117], for which the Ki at ROCK, at ROCK I (AA 6-553) and at PKA was below 500 nM each time.

As to `O=C(Cc1ccccc1)Nc1nc(-c2c[nH]c3ncc(F)cc23)cs1` [II-118], the Ki on ROCK, at ROCK I (AA 6-553) and on PKA was below 500 nM throughout.

On to `COc1cccc(CC(=O)Nc2nc(-c3c[nH]c4ncc(F)cc34)cs2)c1` [II-119], for which the Ki at ROCK, at ROCK I (AA 6-553) and on PKA was below 500 nM each time.

For `CS(=O)(=O)Nc1cccc(CC(=O)Nc2nc(-c3c[nH]c4ncc(F)cc34)cs2)c1` [II-120], the Ki at ROCK, at ROCK I (AA 6-553) and on PKA was below 500 nM each time.

For `O=C(Cc1cccc(S(=O)(=O)N2CCOCC2)c1)Nc1nc(-c2c[nH]c3ncc(F)cc23)cs1` [II-121], the inhibitory constant (Ki) was below 500 nM at ROCK, below 500 nM at ROCK I (AA 6-553) and 500 to 5000 nM on PKA.

`O=C(Cc1ccc(F)cc1F)Nc1nc(-c2c[nH]c3ncc(F)cc23)cs1` [II-122]: the inhibition constant Ki on ROCK, on ROCK I (AA 6-553) and at PKA was below 500 nM each time.

Consider `O=C(Cc1cccc(S(=O)(=O)NCCCN2CCNCC2)c1)Nc1nc(-c2c[nH]c3ncccc23)cs1` [II-123], for which the Ki on ROCK, on ROCK I (AA 6-553) and at PKA was below 500 nM in each case.

For the molecule `O=C(Cc1cccc(S(=O)(=O)N2CCC(O)C2)c1)Nc1nc(-c2c[nH]c3ncccc23)cs1` (stereo not shown) [II-124], the Ki on ROCK, at ROCK I (AA 6-553) and at PKA was below 500 nM in each case.

For the molecule `CN1CCN(CCCNS(=O)(=O)c2cccc(CC(=O)Nc3nc(-c4c[nH]c5ncccc45)cs3)c2)CC1` [II-125], the Ki at ROCK, on ROCK I (AA 6-553) and at PKA was below 500 nM in each case.

In the case of `O=C(Cc1cccc(S(=O)(=O)NCCCN2CCOCC2)c1)Nc1nc(-c2c[nH]c3ncccc23)cs1` [II-126], the Ki on ROCK, at ROCK I (AA 6-553) and on PKA was below 500 nM in each case.
